{"source": "paper PMC6755085", "about": "“Cyclic oligoadenylate signalling mediates Mycobacterium tuberculosis CRISPR defence” (Nucleic Acids Research, 2019)", "target": "T1, TsuCsx1 (Thioalkalivibrio sulfidiphilus, UniProt B8GSI1)", "T1 construct": "gene Tgr7_1803; full-length; N-terminal His8 fusion (pEV5HisTEV), no tag cleavage described; synthetic gene; E. coli C43; dimer", "T1 sequence (B8GSI1 entry or part of it)": "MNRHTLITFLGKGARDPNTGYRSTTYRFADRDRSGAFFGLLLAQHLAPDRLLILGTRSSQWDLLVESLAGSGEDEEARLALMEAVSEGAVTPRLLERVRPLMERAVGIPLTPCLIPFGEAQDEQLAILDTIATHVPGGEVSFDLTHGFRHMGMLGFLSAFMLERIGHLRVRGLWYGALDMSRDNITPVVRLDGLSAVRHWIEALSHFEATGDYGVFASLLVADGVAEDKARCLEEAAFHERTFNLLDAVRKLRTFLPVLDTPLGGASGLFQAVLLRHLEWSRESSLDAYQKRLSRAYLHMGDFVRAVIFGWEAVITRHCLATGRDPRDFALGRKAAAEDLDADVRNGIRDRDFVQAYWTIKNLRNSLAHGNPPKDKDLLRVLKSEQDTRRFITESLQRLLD", "test": "activation of cleavage of […]-labelled RNA, denaturing PAGE", "assay_type": "biochemical", "settings": "synthetic cA4, 1 µM; 0.5 µM TsuCsx1 dimer; 20 mM Tris-HCl, 150 mM NaCl, 1 mM DTT, pH 7.5; 35 °C; activator"}
{"smiles": "Nc1ncnc2c1ncn2[C@@H]1O[C@@H]2COP(=O)(O)O[C@H]3[C@@H](O)[C@H](n4cnc5c(N)ncnc54)O[C@@H]3COP(=O)(O)O[C@H]3[C@@H](O)[C@H](n4cnc5c(N)ncnc54)O[C@@H]3COP(=O)(O)O[C@H]3[C@@H](O)[C@H](n4cnc5c(N)ncnc54)O[C@@H]3COP(=O)(O)O[C@H]2[C@H]1O", "note": "[cA4]", "values": [{"measurement": "activation of cleavage of 32P-labelled RNA, denaturing PAGE", "result": "TsuCsx1 was strongly activated by synthetic cA4 but not by cA6"}]}
